In ChEMBL document CHEMBL2046383, “Hyrtioreticulins A-E, indole alkaloids inhibiting the ubiquitin-activating enzyme, from the marine sponge Hyrtios reticulatus” (Bioorg Med Chem, 2012):
pIC50: −log10 of the molar value. Active and inactive are the calls of the source. No cut-off for these calls is given here.

Assays:
[1] = biological target: T1, Ubiquitin-like modifier-activating enzyme 1 (Homo sapiens) (UniProt P22314); assay: Inhibition of GST-tagged ubiquitin binding to FLAG-tagged E1 at 50 uM after 20 mins by immunoprecipitation analysis
T1 sequence (whole entry): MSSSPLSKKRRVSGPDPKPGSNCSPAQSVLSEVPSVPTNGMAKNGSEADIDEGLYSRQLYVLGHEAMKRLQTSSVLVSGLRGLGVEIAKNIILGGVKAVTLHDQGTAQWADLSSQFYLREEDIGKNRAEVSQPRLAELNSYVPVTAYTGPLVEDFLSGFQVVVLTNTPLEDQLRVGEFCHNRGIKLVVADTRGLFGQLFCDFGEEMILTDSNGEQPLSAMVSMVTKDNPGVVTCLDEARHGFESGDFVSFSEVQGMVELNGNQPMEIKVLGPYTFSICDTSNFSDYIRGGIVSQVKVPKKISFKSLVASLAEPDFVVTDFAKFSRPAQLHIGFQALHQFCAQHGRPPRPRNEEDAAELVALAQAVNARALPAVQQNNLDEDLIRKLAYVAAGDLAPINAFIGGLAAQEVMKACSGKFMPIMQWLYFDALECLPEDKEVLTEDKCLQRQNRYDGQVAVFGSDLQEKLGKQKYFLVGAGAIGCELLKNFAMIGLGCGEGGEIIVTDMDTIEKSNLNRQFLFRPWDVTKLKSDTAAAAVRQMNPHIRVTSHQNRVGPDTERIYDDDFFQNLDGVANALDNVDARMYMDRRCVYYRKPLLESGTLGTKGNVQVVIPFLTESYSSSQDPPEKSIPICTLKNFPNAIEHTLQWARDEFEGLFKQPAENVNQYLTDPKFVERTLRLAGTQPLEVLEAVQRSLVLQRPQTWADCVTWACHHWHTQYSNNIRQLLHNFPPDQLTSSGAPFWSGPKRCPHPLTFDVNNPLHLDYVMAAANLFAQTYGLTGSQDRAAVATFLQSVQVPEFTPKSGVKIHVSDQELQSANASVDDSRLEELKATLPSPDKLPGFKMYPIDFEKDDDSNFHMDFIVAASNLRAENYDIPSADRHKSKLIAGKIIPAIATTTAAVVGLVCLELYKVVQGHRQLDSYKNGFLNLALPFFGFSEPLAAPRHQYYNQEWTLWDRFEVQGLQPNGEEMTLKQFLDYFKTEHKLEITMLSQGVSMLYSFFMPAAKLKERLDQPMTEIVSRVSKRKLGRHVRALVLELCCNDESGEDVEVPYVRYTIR

[2] = test system: HeLa; assay: Cytotoxicity against human HeLa cells at 50 ug/mL; format: functional, cell-based
[3] = biological target: T1, Ubiquitin-like modifier-activating enzyme 1 (Homo sapiens); assay: (§1) Inhibition of FLAG-tagged ubiquitin-activating enzyme E1 assessed as inhibition of GST-ubiquitin/FLAG-E1 intermediate formation by Western blot analysis
[4] = biological target: T2, Ubiquitin-like modifier-activating enzyme 1 (Homo sapiens, UniProt P22314); assay: as §1
T2 sequence (P22314 whole entry): T1 sequence (whole entry)

[5] = biological target: T2, Ubiquitin-like modifier-activating enzyme 1; assay: Inhibition of recombinant fluorescein-tagged E1 assessed as inhibition of ubiquitin-E1 adduct formation incubated for 15 mins prior to ATP addition measured after 5 mins by SDS PAGE analysis
[6] = biological target: T1, Ubiquitin-like modifier-activating enzyme 1 (Homo sapiens); assay: Inhibition of FLAG-tagged ubiquitin-activating enzyme E1 assessed as inhibition of GST-ubiquitin/FLAG-E1 intermediate formation at 100 uM by Western blot analysis
[7] = biological target: T2, Ubiquitin-like modifier-activating enzyme 1; assay: Inhibition of ubiquitin-activating enzyme E1

| SMILES | inhibition [1] | Activity [2] | other results |
| --- | --- | --- | --- |
| O=C(O)[C@@H]1Cc2c([nH]c3ccc(O)cc23)[C@@H](Cc2cnc[nH]2)N1 [HYRTIORETICULIN A] | – | – | pIC50 [4]: 5.62 |
| C[C@H]1N[C@H](C(=O)O)Cc2c[nH]c3ccc(O)c1c23 | – | inactive | – |
| C[C@H]1N[C@H](C(=O)O)Cc2c1[nH]c1ccc(O)cc21 | – | inactive | – |
| C[C@@H]1N[C@H](C(=O)O)Cc2c[nH]c3ccc(O)c1c23 | – | inactive | – |
| CCCCCCCC(=O)SCC/C=C/[C@@H]1CC(=O)NCc2nc(cs2)C2=N[C@@](C)(CS2)C(=O)N[C@@H](C(C)C)C(=O)O1 [LARGAZOLE] | – | – | pIC50 [5]: 4.54 |
| C[C@H]1N[C@@H](C(=O)O)Cc2c1[nH]c1ccc(O)cc21 | – | inactive | inhibition [6]: Active |
| CC(C)(O)/C=C/[C@@]12[C@H]3[C@@H](O)[C@@H]4O[C@@H]4[C@]1(O)OC(C)(C)[C@H]2C=C1C(=O)[C@H]2O[C@H]2[C@H](O)[C@H]13 [PANEPOPHENANTHRINE] | – | – | pIC50 [7]: 4.40 |

The next lines start with results.

| inhibition [1] | SMILES | Activity [2] | other results |
| --- | --- | --- | --- |
| Active | C[C@@H](CC(=O)NC(=O)c1coc(/C=C/CCCCCCCCC(=O)O)cc1=O)C(=O)O | – | – |
| inactive | O=C(O)[C@@H]1Cc2c([nH]c3ccc(O)cc23)[C@H](Cc2c[nH]cn2)N1 [HYRTIORETICULIN B] | inactive | inhibition [3]: Dose-dependent effect; pIC50 [4]: 4.46 |
| inactive | O=C(O)[C@@H]1Cc2c([nH]c3ccc(O)cc23)[C@@H](Cc2c[nH]cn2)N1 | inactive | inhibition [3]: Dose-dependent effect |
